Laboratory results reported in PubChem BioAssay (NCI).
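Step 1: Grow cells in 96-well plates. Step 2: Expose to compound for 48 hours at 5 concentrations. Step 3: Interpolate endpoints linearly; if unreached, use highest concentration. TGI: concentration producing complete growth inhibition.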

Tests used:
Assay in all cases: NCI tumour cell line growth inhibition, 48 h
OVCAR-5 ovarian = system: OVCAR-5 ovarian
UACC-257 melanoma = system: UACC-257 melanoma
RPMI-8226 leukemia = system: RPMI-8226 leukemia
SK-MEL-28 melanoma = system: SK-MEL-28 melanoma
HL-60(TB) leukemia = system: HL-60(TB) leukemia
U251 CNS = system: U251 CNS
IGROV1 ovarian = system: IGROV1 ovarian
CCRF-CEM leukemia = system: CCRF-CEM leukemia
OVCAR-4 ovarian = system: OVCAR-4 ovarian
ACHN renal = system: ACHN renal
HS 578T breast = system: HS 578T breast
TK-10 renal = system: TK-10 renal
MDA-MB-231 breast = system: MDA-MB-231 breast
NCI/ADR-RES ovarian = system: NCI/ADR-RES ovarian
A498 renal = system: A498 renal
HT29 colon = system: HT29 colon
SK-OV-3 ovarian = system: SK-OV-3 ovarian

Row | Structure (SMILES) | TGI (OVCAR-5 ovarian) [µM] | TGI (UACC-257 melanoma) [µM] | TGI (RPMI-8226 leukemia) [µM] | TGI (SK-MEL-28 melanoma) [µM] | TGI (HL-60(TB) leukemia) [µM] | TGI (U251 CNS) [µM] | TGI (IGROV1 ovarian) [µM] | TGI (CCRF-CEM leukemia) [µM] | TGI (OVCAR-4 ovarian) [µM] | TGI (ACHN renal) [µM] | TGI (HS 578T breast) [µM] | TGI (TK-10 renal) [µM] | TGI (MDA-MB-231 breast) [µM] | TGI (NCI/ADR-RES ovarian) [µM] | TGI (A498 renal) [µM] | TGI (HT29 colon) [µM] | TGI (SK-OV-3 ovarian) [µM]
1 | O=c1oc2ccccc2c(O)c1Cc1ccccc1Cc1c(O)c2ccccc2oc1=O | > 100 | > 100 | > 100 | > 100 | > 100 | > 100 | > 100 | > 100 | > 100 | > 100 | > 100 | > 100 | > 100 | > 100 | > 100 | > 100 | > 100
2 | CCCCCCCCCCCCCC/C(C(=O)O)=C(\C)C(=O)O | > 100 | > 100 | > 100 | > 100 | > 100 | > 100 | > 100 | > 100 | > 100 | > 100 | > 100 | > 100 | > 100 | > 100 | > 100 | > 100 | > 100
3 | CCOC1Oc2ccccc2-c2nc(N)ncc21 (configuration not stated) | > 100 | > 100 | > 100 |  | 62.3 | > 100 | > 100 | > 100 | > 100 | > 100 | > 100 | > 100 | > 100 | > 100 | 81.3 | > 100 | > 100
4 | c1cc2nnc1SCCSCCCSCCS2 | > 100 | > 100 | > 100 | > 100 | > 100 | > 100 | > 100 | > 100 | > 100 | > 100 | > 100 | > 100 | > 100 | > 100 | > 100 | > 100 | > 100
5 | CCCCCCCCCc1cc(=O)c2c(O)cc(O)cc2o1 | 32 | 35.5 | 22.3 | 52.2 | 32.3 | 77.2 | 32.4 | 44.7 | 40.9 | 34.5 | 40.6 | 34.5 | > 100 | 35.7 | 35.2 | 34.4 | 32.2
6 | CNC(=O)OCC1=C(COC(=O)NC)CN(c2ccc(OC)cc2)C1 | > 100 | > 100 | > 100 | > 100 | > 100 | > 100 | > 100 | > 100 | > 100 | > 100 | > 100 | > 100 | > 100 | > 100 | 3.9 | > 100 | > 100
7 | O=S(=O)(N1CCCCN(S(=O)(=O)C(F)(F)F)CCCN(S(=O)(=O)C(F)(F)F)CCCCN(S(=O)(=O)C(F)(F)F)CCCN(S(=O)(=O)C(F)(F)F)CCCCN(S(=O)(=O)C(F)(F)F)CCCN(S(=O)(=O)C(F)(F)F)CCCCN(S(=O)(=O)C(F)(F)F)CCC1)C(F)(F)F | > 100 | > 31.6 | > 100 | > 31.6 | > 31.6 | > 100 | > 31.6 | > 31.6 | > 100 | > 31.6 | > 31.6 | > 31.6 | > 31.6 | > 31.6 | > 31.6 | > 31.6 | > 31.6
8 | COc1ccccc1CC1(O)OC(=O)c2ccccc21 (configuration not stated) | > 100 | > 100 | > 100 | > 100 | > 100 | > 100 | > 100 | > 100 | > 100 | > 100 | > 100 | > 100 | > 100 | > 100 | > 100 | > 100 | > 100
9 | N#Cc1n[nH]n(-c2ccccc2)c1=O | > 100 | > 100 | > 100 | > 100 | > 100 | > 100 | > 100 |  | > 100 | > 100 | > 100 | > 100 | > 100 | > 100 | > 100 | > 100 | > 100
10 | O=C(O)c1ccc2[nH]c(=O)oc2c1 | > 100 | > 100 | > 100 | > 100 | > 100 | > 100 | > 100 | > 100 |  | > 100 | > 100 | > 100 | > 100 | > 100 | > 100 | > 100 | > 100
11 | O=c1[nH]nc(Cc2ccc(Cl)cc2)n1CCO | > 100 | > 100 | > 100 | > 100 | > 100 | > 100 | > 100 |  | > 100 | > 100 | > 100 | > 100 | > 100 | > 100 | > 100 | > 100 | > 100
12 | Oc1c(O)c(Cc2ccccc2)c(Cc2ccccc2)c(Cc2ccccc2)c1Cc1ccccc1 | > 10 | > 10 | > 10 | > 10 | > 10 | > 10 | > 10 | > 10 | > 10 | > 10 | > 10 | > 10 | > 10 | > 10 | > 10 | > 10 | > 10
13 | CN1CCN(c2ccc3nc(-c4ccc5nc(CCCc6ccc(N(CCCl)CCCl)cc6)[nH]c5c4)[nH]c3c2)CC1 | > 100 | > 100 | > 100 | > 100 | > 100 | > 100 | > 100 | > 100 | > 100 | > 100 | > 100 | > 100 | > 100 | > 100 | > 100 | > 100 | > 100
14 | NC(=S)NN=C1Cc2ccccc2C1 | > 100 | > 100 | > 100 | > 100 | > 100 | > 100 | > 100 | > 100 | > 100 | > 100 | > 100 | > 100 | > 100 | > 100 | > 100 | > 100 | > 100
15 | CC(C)C(=O)/C=C/c1ccc(Cl)cc1Cl | 30.7 | 26 | > 100 | 30.6 | > 100 | 25.2 | 28.4 | 50.7 | 20.9 | 29.7 | 22.2 | 27.2 | 38.7 | 54.6 | 31.8 | 13.4 | 33.7
16 | Oc1cc(F)cc2cccnc12 | > 100 | 4.29 | 1.17 | > 100 | 0.454 | > 100 | 3.99 | 0.656 | > 100 | > 92.1 | > 100 | > 100 | 32.9 | 6.74 | > 68.1 | > 36.7 | > 100
17 | CCCCCCCCCCCCCCCCCCOC(COP(=O)(O)OCC1OC(n2cc(F)c(=O)[nH]c2=O)CC1O)COP(=O)(O)OCC1OC(n2ccc(N)nc2=O)C(O)C1O (configuration not stated) | > 100 | > 100 | > 100 | > 100 | > 100 | 50.7 | > 100 | > 81.2 | > 100 | > 100 | > 100 | > 100 | > 100 | > 100 | > 100 | > 100 | > 100
18 | CCOC(=O)/C=C(/C(=O)OCC)n1cc(C)c(=O)[nH]c1=O | 13.3 | 26 | 5.68 | 15.5 | 3.91 | 18.8 | 12.9 | 4.61 | > 32.2 | 7.51 | 46.9 | 5.48 | 18.4 | 33.7 | 26.4 | 15.1 | 32.4
19 | COC(=O)C1=C(C(=O)OC)N(c2ccncc2)C(c2ccco2)=CC1c1ccccc1[N+](=O)[O-] (configuration not stated) | 30.6 | 4.25 | 5.69 | 27.2 | 6.06 | 10.7 | 4.19 | 7.43 | 15.7 | 3.47 | 27.8 | 6.85 | 27.5 | 56.1 | 14.1 | 3.95 | 33.1
20 | CN(C)c1ccc(C2=C([O-])c3cc(-[n+]4ccccc4)ccc3C2=O)cc1 | > 100 | > 100 | > 100 | > 100 | > 100 | > 100 | > 100 | > 100 | > 100 | > 100 | > 100 | > 100 | > 100 | > 100 | > 100 | > 100 | 
21 | O=C1/C(=C\c2cccc(Oc3ccccc3)c2)SC(c2ccccc2)N1Cc1ccccc1 (configuration not stated) | > 100 | 87.9 | 57.4 | > 100 | 78.3 | 64.4 |  | 45.5 | > 100 | > 100 | 82.5 | 99.5 | > 100 | 74.4 | > 100 | 51.2 | 71.9
22 | CCC1=NC(N/N=C/c2ccco2)=N/C1=C\c1ccco1 | > 100 | > 100 | > 100 | > 100 | > 100 | > 100 | > 100 | > 100 | > 100 | > 100 | > 100 | > 100 | > 100 | > 100 | > 100 | > 100 | > 100
23 | OCCCN=C1N=C(Cl)/C(=C\c2ccccc2)N1 | > 100 | > 100 | > 100 | > 100 | > 100 | > 100 | > 100 | > 100 | > 100 | > 100 | > 100 | > 100 | > 100 | > 100 | > 100 | > 100 | > 100
24 | COc1ccc(N2C(=O)C3c4[nH]c5ccc(OC)cc5c4C4CCC(c5ccccc5)CC4C3C2=O)cc1 (configuration not stated) | > 64.5 | > 88.9 | 39.7 | 37 | 66 | 22.8 | 62.2 | 10.3 | 19.3 | 34 | 12.7 | > 57.7 | 25 | 33.2 | 37.4 | > 40.5 | 26.1
25 | CCOC(=O)n1ccc2c(C(=O)OC)c(C(=O)OC)cc(/C(=C/C(=O)OC)C(=O)OC)c21 | > 100 | > 100 | > 100 | > 100 | > 100 | > 100 | > 100 | > 100 | > 100 | > 100 | > 100 | > 100 | > 100 | > 100 | > 100 | > 100 | > 100
26 | COC(=O)C(Cc1ccccc1)NP(=O)(O)OCC1OC(n2ccc(N)nc2=O)C(O)C1O (configuration not stated) | > 100 | > 100 | > 100 | > 100 | > 100 | > 100 | > 100 | > 100 | > 100 | > 100 | > 100 | > 100 | > 100 | > 100 | > 100 | > 100 | > 100
27 | O=C(Cc1ccccc1)Nc1nc2ccc(Cl)cc2c2nc(-c3ccco3)nn12 | > 100 | > 100 | > 100 | > 100 | > 100 | > 100 | > 100 | > 100 |  | > 100 | > 100 | > 75.3 | > 100 | > 100 | > 100 | > 100 | > 100
